Test results published in patent publication US8431540B2, “Modified lysine-mimetic compounds” (Zealand Pharma A/S, priority 2005, dated 2013).

Tested on: isolated rat atrial strip
Test: Isolated atrial strip model of metabolic stress induced atrial conduction slowing
Conditions: rat left atrial strip; 40 min glucose-free, non-oxygenated buffer; control decreased by 22%
Description: Peptides suitable for administration to cardiac cells can be identified in an in vitro model as described by Haugan et al. (J. Cardiovasc. Electrophysiol., 16, 537-545 (2005)).
Rats (300-400 g) are killed by a sharp blow on the neck. The heart is rapidly excised and transferred to a small dish containing 37° oxygenated modified Tyrodes buffer containing (in mM): NaCl 136, KCl 4, MgCl2 0.8, CaCl2 1.8 HEPES 5, MES 5, Glucose 6, pH 7.3. The left atrium is carefully dissected and a tissue sample of approximately 2×6 mm is taken from the left atrial appendage and placed in a tissue chamber (volume 5 ml), (Steiert Organ Bath, Hugo Sach Electronic, Germany). The chamber is perfused throughout the study with 37° C. oxygenated Tyrodes buffer at a rate of 10 ml/min.
A bipolar stimulation electrode (Teflon coated stainless steel, diameter […]) is placed at one end of the tissue. Stimulation is performed at 1 Hz using rectangular pulses at double threshold (duration of stimulus 0.2 ms) delivered by a stimulator (Hugo Sachs, Type 215) through an isolation unit (Universal Isolated Stimulator Unit type 263, Hugo Sachs, Germany).
Two separate microelectrodes of pure iridium (World Precision Instruments, tip-impedance 3.5-4.0 MΩ) are placed on a line along the long-axis of the preparation for recording of atrial CV. […]

In the case of `NCC(=O)N1C[C@H](NC(=O)c2ccccc2)C[C@H]1C(=O)O` [Compound 2, (2S4R)1-(2-Amino-acetyl)-4-benzoylamino-pyrrolidine-2-carboxylic acid], the “atrial conduction velocity change compared to baseline” value is reported as “did not change compared to baseline”.
